Where two headings read alike, the source gives them in different places.
Key:
[1] = Metabolic stability in rat liver microsomes; format: in vitro ADME; conditions: for half-life at 1 μM / microsomal CLint at 1 μM: both sexes, rat, microsomes, pH 7.4
Method: RLM Stability. Pooled RLM from adult male and female donors (Xenotech R1000) were used. Microsomal incubations were carried out in multi-well plates. Liver microsomal incubation medium consisted of PBS (100 mM, pH 7.4), MgCl2 (1 mM), and NADPH (1 mM), with 0.50 mg of liver microsomal protein per mL. Control incubations were performed by replacing the NADPH-cofactor system with PBS. Test compounds (1 μM, final solvent concentration 1.0%) were incubated with microsomes at 37° C. with constant shaking. Six time points over 60 minutes were analyzed, with 60 μL aliquots of the reaction mixture being drawn at each time point. The reaction aliquots were stopped by adding 180 μL of cold (4° C.) acetonitrile containing 200 ng/mL tolbutamide and 200 ng/ml labetalol as internal standards (IS), followed by shaking for 10 minutes, and then protein sedimentation by centrifugation at 4,000 rpm for 20 minutes at 4° C. Supernatant samples (80 μL) were diluted with water (240 μL) and analyzed for parent compound remaining using a fit-for-purpose liquid chromatography-tandem mass spectrometry (LC-MS/MS) method.
Data Analysis. The elimination constant (kel), half-life (t1/2), and intrinsic clearance (CLint) were determined in a plot of […] versus time, using linear regression analysis.

[2] = target: T1, 5-HT2B receptor (Homo sapiens, UniProt P41595); test: FLIPR Ca2+ flux functional assay, antagonist activity at 5-HT2B; format: cell-based; conditions: for 5-HT2B % Inh @ Max Dose: at max dose
T1 construct: host or cells: HEK293 (stably transfected)
Method: Key peripheral 5-HT2A receptors antagonists were tested for antagonist activity at several serotonin (5-HT) receptor subtypes (5-HT2A and 5-HT2B) using Ca^2+ flux functional assays, with the results summarized in Table 3. […] The ability to block peripheral 5-HT2B receptors in addition to 5-HT2A receptors is advantageous in the context of the present disclosure, as such blockade is likely to mitigate the potential cardiac valvulopathy induced by 5-HT2B receptor agonists. This is expected to be a potential side effect of many classical psychedelics, which activate 5-HT2B receptors as a secondary target. Accordingly, xylamidine and BW501C67 are preferred over Compound 14a for use in combination with 5-HT2A receptor agonists that also activate 5-HT2B receptors, since they also block this important off target. When taken together with the binding data presented above, xylamidine and BW501C67 appear to be potent pan-antagonists for 5-HT2-type receptors, whereas Compound 14a is selective for 5-HT2A receptors specifically.
Functional Assays at 5-HT2A and 5-HT2B. Antagonist activity at 5-HT2A and 5-HT2B receptors was determined using a FLIPR Ca^2+ flux assay at WuXi AppTec (Hong Kong) Limited according to their standard protocols. Briefly, stably transfected HEK293 cells expressing the receptor of interest were grown and plated in a 384 well plate and incubated at 37° C. and 5% CO2 overnight. This was combined with a fluorescent dye (Fluo-4 Direct™) to make a final assay concentration of 2.5 mM. Compounds were diluted 1:3.16 for 10 points and 750 nL was added to a 384 well compound plate using ECHO along with 30 μL assay buffer. The fluorescent dye was then added to the assay plate along with assay buffer to a final volume of 40 μL. The cell plate was incubated for 50 min at 37° C. and 5% CO2 and placed into the FLIPR Tetra along with the compound plate. 10 μL of references and compounds were then transferred from the compound plate into the cell plate and the fluorescent signal was read. Next, 10 μL of a 6× solution of 5-carboxamidotryptamine (5-CT) at the calculated EC80 was added and the fluorescent signal read again. Finally, the Max-Min signal was calculated for the runs with and without agonist.

[3] = in vitro; set-up: fraction unbound at 4 h: dose or concentration left out as unconfirmed; conditions: rat, brain homogenate
Method: Various putative peripheral 5-HT2A receptor antagonists were tested for binding to rat brain homogenate via equilibrium dialysis, with the results summarized in Table 7.
Method 1. Rat brain homogenate was thawed in a water bath at room temperature and then incubated at 37° C. for 10 min before use. Aliquots of 50 μL of loading matrix containing test compound (2 μM final incubation concentration) or control compound in triplicate were transferred to a Sample Collection Plate. The samples were matched with opposite blank buffer to obtain a final volume of 100 μL with a volume ratio of matrix: Dialysis Buffer of 1:1 (v:v) in each well. The stop solution (200 ng/mL tolbutamide and 200 ng/ml labetalol in ACN) was immediately added to these T0 samples of test compound and control compound. The plate was sealed and shaken at 800 rpm for 10 min. T0 samples were stored at 2-8° C. pending further processing along with other post-dialysis samples. An aliquot of 100 μL of the loading matrix containing test compound or control compound was transferred to the donor side of each dialysis well in triplicate and 100 μL of the Dialysis Buffer was loaded to the receiver side of the well. Then the plate was rotated at approximately 100 rpm in a humidified incubator with 5% CO2 at 37±1° C. for 4 hours. At the end of the dialysis. aliquots of 50 μL from the buffer side and matrix side of the dialysis device were taken into new 96-well plates (Sample Collection Plates). An equal volume of opposite blank matrix (buffer or matrix) in each sample was added to reach a final volume of 100 μL, with a volume ratio of matrix: Dialysis Buffer of 1:1 (v:v) in each well. All samples were further processed by protein precipitation before LC-MS/MS analysis.
Method 2. Aliquots (200 μL) of test compounds and positive controls at […] in rat brain homogenate (triplicates) were added to the rapid equilibrium dialysis (RED) chamber of dialysis inserts. A 350 μL aliquot of dialysis buffer was added to the buffer chamber of the inserts. After sealing the RED device with an adhesive film, dialysis was conducted at 37° C. with shaking at 100 RPM for 4 hours. Following dialysis, an aliquot of 50 μL was removed from each well (brain homogenate and buffer) and diluted with an equal volume of opposite matrix to nullify the matrix effect. Similarly, buffer was added to recovery and stability samples. An aliquot of 100 μL was used for LC-MS/MS analysis following protein precipitation with ACN containing internal standard.

[4] = RLM, 1 μM, 0.50 mg protein per mL, NADPH
[5] = antagonist activity, Ca2+ flux, HEK293 cells, agonist at EC80
[6] = antagonist activity, Ca2+ flux, HEK293 cells, agonist at EC80, read-out: 5-HT2B IC50

T1 sequence (P41595 whole entry): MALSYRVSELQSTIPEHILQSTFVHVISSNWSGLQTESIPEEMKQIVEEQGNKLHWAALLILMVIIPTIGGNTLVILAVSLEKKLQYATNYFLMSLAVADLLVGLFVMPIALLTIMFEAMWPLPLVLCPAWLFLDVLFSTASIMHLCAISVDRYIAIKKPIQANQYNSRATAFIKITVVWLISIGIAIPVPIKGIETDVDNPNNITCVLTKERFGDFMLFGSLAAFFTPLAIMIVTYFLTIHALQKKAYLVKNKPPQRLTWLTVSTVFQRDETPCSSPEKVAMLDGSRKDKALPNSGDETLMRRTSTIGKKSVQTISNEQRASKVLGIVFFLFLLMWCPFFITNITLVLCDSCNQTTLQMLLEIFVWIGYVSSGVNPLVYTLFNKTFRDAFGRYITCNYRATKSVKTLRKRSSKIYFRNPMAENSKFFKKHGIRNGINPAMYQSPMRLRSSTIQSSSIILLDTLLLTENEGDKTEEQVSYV

Structure (SMILES)	Metabolic stability in RLM [1]	half-life at 1 μM [1, 4] [min]	microsomal CLint at 1 μM [1, 4] [µL/min/mg]	IC50 [2] [nM]	5-HT2B IC50 (nM) [2, 5]	5-HT2B % Inh @ Max Dose ([2]; antagonist activity, Ca2+ flux) [%]	fraction unbound at 4 h, 2 μM [3]	IC50 [2, 6] [nM]	fraction unbound at 4 h [3]	Clint [1, 4] [µL/min/mg]	t1/2 [1, 4] [min]
CC(CNC(=N)CNc1ccccc1)Oc1cccc(Cl)c1.O=CO (stereo not drawn) [BW501C67, N-(2-(3-chlorophenoxy)propyl)-2-(phenylamino)acetimidamide formate]	poor metabolic stability	2.1	658	21.6	high potency antagonism	99.74	0.003	–	–	–	–
CC(C)COc1ccc(CNC(=O)N(Cc2ccc(F)cc2)C2CCN(C(=O)CC[C@H](N)C(=O)O)CC2)cc1 [Compound 14a, (S)-2-amino-5-(4-(1-(4-fluorobenzyl)-3-(4-isobutoxybenzyl)ureido)piperidin-1-yl)-5-oxopentanoic acid]	highly stable	> 145	< 9.6	–	–	−12.17	–	> 10000	0.078	–	–
COc1cccc(CCc2ccccc2OCC(CN(C)C)OC(=O)CCC(=O)O)c1 (stereo not drawn) [sarpogrelate]	–	–	–	–	–	–	–	–	0.054	–	–
COc1cccc(C(=O)Nc2ccc(OCCN3CCOCC3)c(-c3ccnn3C)c2)c1 [temanogrel]	–	–	–	–	–	–	–	–	0.108	–	–
COc1cccc(OC(C)CNC(=N)Cc2cccc(C)c2)c1.O=C(O)C(F)(F)F (stereo not drawn) [xylamidine, N-(2-(3-methoxyphenoxy)propyl)-2-(m-tolyl) acetimidamide trifluoroacetate]	poor metabolic stability	–	–	–	high potency antagonism	99.68	–	13.3	–	709.1	2.0

From patent US20240390301A1, “COMBINATIONS OF PERIPHERAL 5-HT2A RECEPTOR ANTAGONISTS AND CENTRAL 5-HT2A RECEPTOR AGONISTS” (priority 2021, published 2024)
